Measured values taken from article PMC13021292, “Safety, tolerability and pharmacokinetics of DNDI‐6148, a novel agent for leishmaniasis: A randomized, controlled, single ascending dose study in healthy participants” (British Journal of Clinical Pharmacology, 2025).
Where two headings read alike, the source gives them in different places.

Columns and labels:
[1] = Urinary excretion and renal clearance, single ascending oral dose study; type: in vivo, human; conditions: single oral 10–380 mg
Experimental: Urine was collected up to 72 h during the following intervals: pre‐dose, D1T0h – D1T12h, D1T12h – D2T24h, D2T24h – D3T48h and D3T48h – D4T72h. Urine was collected in containers containing 20 g citric acid monohydrate and stored at 4 °C for a maximum of 43 h. All urine passed during each interval period was combined and at the end of the interval, the pool of acidified urine was vigorously mixed; two aliquots were prepared, each with 1 mL of acidified urine and 1 mL of aqueous solution of 50 g/L bovine serum albumin (BSA) and 9 g/L NaCl.
Tubes of acidified urine/BSA samples were capped immediately for each time point and stored at −80 °C. Samples of both acidified plasma and acidified urine/BSA were shipped for bioanalysis on dry ice by a specialized carrier. Temperatures were monitored using a data logger during transport.

[2] = Safety and tolerability (adverse events), single ascending oral dose study; type: in vivo, human
Experimental: The primary endpoint was assessment of the safety and tolerability of DNDI‐6148 by evaluation of the following parameters: adverse events (AEs), physical examination (including body weight), clinical neurological examination, vital signs, 12‐lead ECG, clinical laboratory (including serum chemistry, haematology, hormonology and urinalysis) and psychological and cognitive examinations.
(§1) Safety was assessed by monitoring AEs throughout the study. Other safety monitoring included 12‐lead ECG recordings, measurement of vital signs, physical and neurological examinations, haematology, blood biochemistry and urinalysis and, for the last four participants of the 160 mg cohort and onwards, CRP and TNFα.
To minimize risk, participants were dosed sequentially, using sentinels in each cohort (one receiving DNDI‐6148, one placebo), as per European Medicines Agency guidelines.[12] Stopping criteria used in that study are described in Supplementary Information, Text S2. If the previous dose was well tolerated, with no safety concerns, the Safety Review Committee decided on dose escalation after reviewing blinded safety and PK data from all available cohorts.

[3] = Cardiac safety: ECG QTcF, QTcG, heart rate; type: in vivo, human
Experimental: as §1
Triplicate ECGs extracted from 24-hour Holter recordings at predefined time points aligned with the pharmacokinetic (PK) sampling were used for additional cardiac safety analyses. […] For the group correction, α was estimated as the slope of the linear relationship between ln(QT) and ln(RR), based on drug-free (placebo and pre-dose) data (Figure S1).

[4] = Plasma CRP and TNFα pre- and post-dose (exploratory inflammation markers); type: in vivo, human; parameters: CRP plasma concentration, Mean / TNFα plasma concentration, Mean: unit not given here; conditions: for CRP change from pre-dose, Mean / CRP change from pre-dose, Median / CRP plasma concentration, Mean / CRP plasma concentration, Median / TNFα change from pre-dose, Mean / TNFα plasma concentration, Mean / TNFα plasma concentration, Median / TNFα change from pre-dose, Median: 6 h post-dose (D1-T6H)
Text: Recruitment was temporarily interrupted on 16 March 2020 due to confinement measures related to the COVID‐19 outbreak in France. The study resumed on 17 August 2020, allowing for the completion of recruitment for cohorts 2, 3 and 4. Additionally, four participants were included in cohort 5 before suspension of the investigational product (IP) administration on 30 January 2021 as a precaution to assess emerging unexpected data in a non‐clinical Fertility and Early Embryonic Development study. The protocol was further amended to include evaluation of plasma concentrations of C‐reactive protein (CRP) and of tumour necrosis factor alpha (TNFα) pre and post‐dose (6 h) as exploratory markers of possible inflammation. Subsequent cohorts were completed up to the 380 mg dose level (cohort 8) without further interruption of the study.
Exploratory endpoints included ECG parameters compared to baseline and placebo; the exploratory identification of DNDI‐6148 metabolites; and, for the last four participants of the 160 mg cohort and the 220 mg, 300 mg and 380 mg cohorts, the exploratory evaluation of plasma concentrations of CRP and TNFα pre‐ and post‐dose.
as §1

[5] = human, in vivo, po, 220 mg
Experimental: (§2) This was a FIH, phase I, double‐blind, parallel, single ascending dose (SAD) study of DNDI‐6148 arginine monohydrate, administered as an oral suspension to healthy male participants. Cohorts 1–8 each included eight participants and were administered 10, 20, 40, 80, 160, 220, 300 or 380 mg (free form) of DNDI‐6148 (in six participants) or placebo (two participants).
(§3) At the clinical site, a suspension was prepared extemporaneously by the pharmacist within 24 h prior to administration to participants (the timepoint for which stability data of the suspension were available). The IP powder was suspended in 30 mL ORA‐Sweet® (Paddock Laboratories, LLC, Minneapolis, USA) for taste and colour masking. Participants were administered between 4 and 25 mL of the suspensions, followed by the ingestion of 250 mL tap water. Opaque precision syringes were used to administer the solutions to minimize the risk of unblinding. To preclude any dietary effects on the PK of DNDI‐6148, participants fasted for 9 h before they received the IP or placebo. Treatments were administered under the supervision of the investigator at approximately 8 a.m. on Day 1.
(§4) Blood samples (6 mL per time point) for pharmacokinetic analyses were collected on Day 1 pre‐dose and at the following post‐dose time points: 0.5,1, 1.5 (cohorts 1–4 only), 2, 2.5, 3, 4, 5 (cohorts 5–8 only), 6, 9, 12, 24, 48 and 72 h. […] Within 30 min of blood collection, blood samples were centrifuged at 1500g for 10 min at 4 °C and 500 μL of plasma were transferred into pre‐labelled polypropylene tubes prefilled with phosphoric acid 2% (1:1, v:v). Tubes were capped immediately for each time point, and the plasma was frozen in an upright position at −80 °C for storage.
(§5) Concentrations of DNDI‐6148 were determined in acidified plasma and acidified urine/BSA mixture using a validated internally standardized liquid chromatography–tandem mass spectrometry (LC–MS/MS) assay with deuterated d4‐DNDI‐6148 as an internal standard. The lower limit of quantitation (LOQ) for DNDI‐6148 was 1 ng/mL in plasma and 10 ng/mL in urine.
(§6) Values that were below the LOQ before the first concentration equal or above LOQ were set to zero. Other values below the LOQ were not used to calculate the PK parameters. The area under the plasma concentration‐time curve from time zero (pre‐dose) to the time of last quantifiable concentration (AUC0‐last) was calculated using the linear‐log trapezoidal rule. Elimination half‐life (t1/2) was calculated by the equation ln2/λz, after visual inspection of the plasma concentration‐time profiles (considering a minimum of 3 data points, including the last measurable data point and excluding Cmax).
(§7) PK parameters were derived from plasma concentration vs. time data using non‐compartmental analysis in Phoenix WinNonlin® 8.1 (Certara Inc., Princeton, NJ, USA). Plasma concentration vs. time data and PK parameters were listed and summarized by dose level, using descriptive statistics. Mean concentrations were calculated only if at least ⅔ of the individual concentrations were above the lower LOQ (LLOQ). […] Planned sampling times were used to summarize plasma concentration data; actual sampling times were used in the derivation of PK parameters.

L. donovani [6] = conditions: cited from earlier work
L. infantum [7] = conditions: cited from earlier work
L. infantum [8] = conditions: 25 mg/kg BID for five or ten days; cited from earlier work
L. donovani [9] = conditions: 25 mg/kg BID for five days, oral; cited from earlier work
L. infantum [10] = conditions: 25 mg/kg BID for five days, oral; cited from earlier work
[11] = cited from earlier work
[12] = at 1 μM; cited from earlier work
[13] = pH 7.4; cited from earlier work
[14] = parameters: method as in unpublished data; conditions: non‐clinical studies ref unpublished data; cited from earlier work
[15] = cited from earlier work; remark: listed apart in the source
[16] = Plasma pharmacokinetics, first-in-human single ascending oral dose study; conditions: 10 mg single oral dose
Experimental: as §2, §3, §4, §5, §6, §7

## Cc1c(C(=O)Nc2ccc3c(c2)B(O)OC3)nnn1-c1ccccn1 [DNDI‐6148]
[1]
  fraction of the dose excreted by the kidneys as unchanged drug: below 0.2%
[2]; 10 mg (N = 6)
  TEAE Musculoskeletal and connective tissue disorders, participants n (%) [events]: 0
[2]; 80 mg (N = 6)
  TEAE Musculoskeletal and connective tissue disorders, participants n (%) [events]: 0
[2]; 160 mg (N = 6)
  TEAE Musculoskeletal and connective tissue disorders, participants n (%) [events]: 0
[2]; 220 mg (N = 6)
  TEAE Musculoskeletal and connective tissue disorders, participants n (%) [events]: 0
[2]; 380 mg (N = 6)
  TEAE Musculoskeletal and connective tissue disorders, participants n (%) [events]: 0
[2]; in vivo
  TEAEs (events): 10
  participants with TEAEs: 8
  participants with TEAEs, percentage: 14.3%
[2]; single doses 10–380 mg
  maximal tolerated dose: not reached
[3]; 160 mg, 12 h post-dose
  largest mean ΔΔQTcG: 7.24 ms
[3]; 380 mg, 9 h post-dose
  mean ΔΔQTcG: 1.83 ms
[3]; all doses
  QTcG changes from baseline: ≤ 30 ms
  QTcG values: ≤ 450 ms
[3]; any participant
  QTcF value >500 msec or change from baseline QTcF >60 msec: No QTcF value >500 msec or change from baseline QTcF >60 msec was recorded
[3]; any single dose, concentration‐response modelling
  upper limit of the 90% CI of ΔΔQTcF: ≤ 10 ms
[3]; dose of 380 mg, concentration‐response modelling
  maximum effect on ΔΔQTcF, estimated: 1.65 (90% CI: −0.635, 3.94) msec
[4]; 160 mg, n 3
  CRP change from pre-dose, Mean: -0.03
  CRP change from pre-dose, Median: 0.00
  CRP plasma concentration, Mean: 0.80
  CRP plasma concentration, Median: 0.60
  TNFα change from pre-dose, Mean: 0.15
  TNFα plasma concentration, Mean: 2.55
  TNFα plasma concentration, Median: 2.58
[4]; 220 mg, n 6
  CRP change from pre-dose, Mean: -0.03
  CRP change from pre-dose, Median: 0.00
  CRP plasma concentration, Mean: 0.72
  CRP plasma concentration, Median: 0.60
  TNFα change from pre-dose, Mean: -19.68
  TNFα change from pre-dose, Median: -15.26
  TNFα plasma concentration, Mean: 1.77
  TNFα plasma concentration, Median: 1.74
[4]; 300 mg, n 6
  CRP change from pre-dose, Mean: -0.13
  CRP change from pre-dose, Median: -0.15
  CRP plasma concentration, Mean: 2.47
  CRP plasma concentration, Median: 1.15
  TNFα change from pre-dose, Mean: -0.37
  TNFα change from pre-dose, Median: 0.18
  TNFα plasma concentration, Mean: 2.67
  TNFα plasma concentration, Median: 2.62
[4]; 380 mg, n 4
  TNFα change from pre-dose, Mean: 0.33
  TNFα change from pre-dose, Median: 0.32
  TNFα plasma concentration, Mean: 2.82
  TNFα plasma concentration, Median: 2.75
[4]; 380 mg, n 6
  CRP change from pre-dose, Mean: -0.02
  CRP change from pre-dose, Median: 0.00
  CRP plasma concentration, Mean: 0.87
  CRP plasma concentration, Median: 0.60
[4]; last four participants of 160 mg cohort and 220–380 mg cohorts
  plasma CRP and TNFα concentrations post‐dose compared with pre‐dose: not significantly increased
[5]
  CL/F: 2.55 L/h
L. donovani [6]
  in vitro activity against L. donovani: in the micromolar range
L. infantum [7]
  in vitro activity against L. infantum: in the micromolar range
L. infantum [8]
  efficacy by oral route in L. infantum hamster model of VL: demonstrated efficacy
L. donovani [9]
  efficacy in L. donovani mouse model of VL: demonstrated efficacy
L. infantum [10]
  efficacy in L. infantum mouse model of VL: demonstrated efficacy
[11]; humans
  unbound fraction in plasma: 6.6%
[11]; species not stated
  plasma protein binding (bound): over 93%
[12]
  CLint in hepatocytes: 0.5 μL/min/10^6 cells
[13]
  logD: 1.92
[14]
  blood–brain barrier crossing: cross the blood–brain barrier
[15]
  CLint in human liver microsomes: below 0.3 μL/min/mg
[16]; GM
  CL/F: 2.89 L/h
  Cmax: 155 ng/mL
  Vd/F: 52.89 L
  t1/2: 12.7 h
[16]; Mean
  CL/F: 2.97 L/h
  Cmax: 156 ng/mL
  Vd/F: 53.52 L
